{"source": "patent US20060116451A1", "about": "“Stabilization of antioxidants” (priority 2004, published 2006)", "test": "Residual antioxidant activity (ABTS^+) upon exposure to UV-irradiated TiO2", "type": "physicochemical", "conditions": "FIG. 6", "protocol": "Exposure of enzymes to UV-irradiated TiO2: Enzyme (0.8 mg protein/mL, total 10 mL in 25 mM phosphate buffer, pH 7.5) was placed in an open scintillation vial. TiO2 fine powder (0.25 mg/mL) was added to the protein solution and the suspension was stirred gently at room temperature (25° C.) with a magnetic stir bar placed inside the vial. The enzyme-TiO2 suspension was placed under a […] UV lamp (model No. B-100AP, UVP, San Gabriel, Calif.). The distance between the UV lamp and the vial was 18 cm. At this distance, the UV irradiance at 365 nm (λmax) was 8 mW/cm^2 (determined using a […]® UV meter (Model No. J-221). It was also verified that there was no thermal denaturation of the enzyme during irradiation and the temperature of the enzyme-TiO2 suspension remained constant (25±2° C.) throughout. Exposure of antioxidants to UV-irradiated TiO2: Trolox (0.01 mg/mL) was dissolved in 10 mL phosphate buffer (25 mM, pH 7.5). TiO2 (0.25 mg/mL) was added to the Trolox solution. The suspension was stirred and irradiated with UV as described above. At 30 min intervals, 1 mL aliquots were removed from the irradiating suspension and filtered through a 0.2 μm filter. […] Determination of residual antioxidant activity: Antioxidant activities of modified enzymes and the modifiers were measured according to the following modification of the assay reported by Re et al. Re, […].; Yang, M.; Rice-Evans, C. […]"}
{"smiles": "Cc1c(C)c2c(c(C)c1O)CCC(C)(C(=O)O)O2", "note": "(stereo not shown) [Trolox, 6-hydroxy-2,5,7,8-tetramethylchroman-2-carboxylic acid]", "values": [{"measurement": "loss of free radical absorbing activity during the first hour of photooxidation (TiO2-UV)", "value": 80, "unit": "%"}]}
